# Measurements from patent US10994016B2, “Graphene oxide mediated cellular delivery of gadolinium-labeled molecules” (Northwestern University, priority 2015, dated 2021).
# Several values for one entry are separate records, joined by “and”; a condition that tells them apart may be missing. Equal values may be shown once.
# Assays:
# HeLa cells = test: Cellular delivery studies with and without GO co-incubation, HeLa; assay type: cell-based; conditions: for Gd content (fmol/cell): 24 h, replicate values; for Gd content (fmol/cell), Outliers: values removed as outliers (Chauvenet's criterion, * experimenter judgment)
# Method: ICP-MS Samples were prepared in 15-mL conical tubes by adding ACS reagent grade nitric acid (70%), followed by incubation at 70° C. overnight to allow for complete sample digestion. The effectiveness of this digestion protocol was previously validated for GO. After incubation, a multi-element internal standard (containing Bi, Ho, In, Li, Sc, Tb, and Y, Inorganic Ventures, Christiansburg, Va.) and milli-Q water (18.2 MΩ·cm) were added to produce a final sample of 3% (v/v) nitric acid and 5 ng/mL internal standard.
# ICP-MS was performed on a computer-controlled (Plasmalab software) Thermo X series II ICP-MS (Thermo Fisher Scientific, Waltham, Mass., USA) operating in standard mode equipped with an ESI SC-2 autosampler (Omaha, Nebr., USA). Each sample was acquired using 1 survey run (10 sweeps) and 3 main (peak jumping) runs (100 sweeps). The isotopes selected for analysis were Gd with In and Ho isotopes selected as internal standards for data interpolation. Instrument performance is optimized daily through an autotune followed by verification via a performance report (passing manufacturer specifications). Instrument calibration was accomplished by preparing individual-element Gd standards (Inorganic Ventures, Christiansburg, Va., USA) using concentrations of 0.78125, 1.5625, 3.125, 6.25, 12.50, 25.00, 50.00, 100.0, and 200.0 ng/mL containing 3.0% nitric acid (v/v) and 5.0 ng/mL of multi-element internal standard.
# Dulbecco's modified phosphate buffered saline (DPBS), media, and dissociation reagents were purchased from Life Technologies (Carlsbad, Calif.). CorningBrand® cell culture consumables (flasks, plates, etc.) and sera were purchased from VWR Scientific (Radnor, Pa.). HeLa cells (ATCC® CCL-2™) and KB cells (ATCC® CCL-17™) were purchased from the American Type Culture Collection (ATCC, Manassas, Va.) and cultured in phenol red-free minimum essential media (MEM) supplemented with 10% fetal bovine serum (FBS). Prior to all experiments, cells were plated and allowed to incubate for 24 hours before dosing. Cells were harvested with 0.25% TrypLE for 5 minutes at 37° C. in a 5.0% CO2 incubator. For sterilization, all Gd(III)-labeled molecules were filtered with 0.2 μm sterile filters prior to concentration determination and storage at 4° C. GO was used as prepared without further sterilization. […] Cells were grown in a humidified incubator operating at 37° C. and 5.0% CO2.
# Cell counting was conducted using a Guava EasyCyte Mini Personal Cell Analyzer (EMD Millipore, Billerica, Mass.). After cell harvesting, an aliquot (50 μL) of the cell suspensions was mixed with Guava ViaCount reagent (150 μL) and allowed to stain at room temperature for at least 5 minutes. The dilution factor of 4 was determined based upon optimum machine performance (20-150 cells/μL). After vortexing for 10 sec, stained cells were counted using a Guava EasyCyte Mini Personal Cell Analyzer (PCA) using the ViaCount software module. For each sample, 1000 events were acquired. Gating of live/dead and cell/debris classifications were performed manually by the operator.
# Cellular delivery studies were performed with HeLa and KB cells. HeLa and KB were plated at a cell density of approximately 25,000 and 50,000 cells per well, respectively, in a 24-well plate as counted by a hemocytometer. Stock solutions of 1-14 (1 mM), 150 nm GO (100 μg/mL), and 1500 nm GO (100 μg/mL) were prepared using sterile Milli-Q water. Prior to dosing, 80 μL ([…]) of each GO (150 nm and 1500 nm) and 80 μL (80 nmol) of each Gd(III)-labeled molecule (1-14) were mixed and allowed to adsorb for at least 15 minutes. 150 μL Gd(III)-GO solutions were added to 250 μL media to give a final concentration of 188 μM Gd and 18.8 μg/mL GO. Cells were incubated with the mixture of Gd(III)-labeled molecules and GO for […]. To harvest, cells were rinsed in-plate three times with 500 μL PBS and trypsinized using 100 μL 0.25% TrypLE. […]
# [1] = Octanol-water partition coefficients; assay type: physicochemical; conditions: errors show SEM; Gd in each layer by ICP-MS
# Method: Approximately 1 mg of each compound was dissolved in 1 mL of a 1:1 mixture of water/1-octanol. After shaking the sample tube vigorously for 30 s, the tube was placed on a rotator for gentle mixing over 6 h. The tube was then removed from the rotator and allowed to sit for 12 h to ensure complete separation of the aqueous and organic phases. […] Once separation was complete, 10 μL was removed from each layer to determine the concentration of Gd by ICP-MS. The partition coefficient was calculated from the following equation: log10P=log10(Co/Cw), where log10 P is the logarithm of the partition coefficient, Co is the concentration of Gd in the 1-octanol layer, and Cw is the concentration of Gd in the water layer.
# [2] = +150 nm GO co-incubation, 188 μM Gd(III), 18.8 μg/mL GO
# [3] = +1500 nm GO co-incubation, 188 μM Gd(III), 18.8 μg/mL GO
# [4] = molecule alone, without GO, 188 μM Gd(III), 24-well plate
SMILES,Gd content (fmol/cell) (HeLa cells; [2]),Gd content (fmol/cell) (HeLa cells; [3]),Gd content (fmol/cell) (HeLa cells; [4]),Water-Octanol LogP [1],"Gd content (fmol/cell), Outliers (HeLa cells; +1500 nm GO)","Delivery enhancement without adsorption time (HeLa cells; 1500 nm GO, 188 μM Gd(III), 18.8 μg/mL GO)","Gd content (fmol/cell), Outliers (HeLa cells; molecule alone, without GO)","Gd content (fmol/cell), Outliers (HeLa cells; +150 nm GO)"
O=C([O-])CN1CCN(CC(=O)[O-])CCN(CC(O)Cn2cc(CCCOP(=O)(O)O)nn2)CCN(CC(=O)[O-])CC1.[Gd+3] (stereo not drawn) [Molecule 3],1.84 fmol/cell and 1.36 fmol/cell and 1.29 fmol/cell,1.61 fmol/cell and 1.64 fmol/cell and 1.41 fmol/cell,0.74 fmol/cell and 0.90 fmol/cell and 0.65 fmol/cell,−4.05 ± 0.17,,,,
O=C([O-])CN1CCN(CC(=O)[O-])CCN(CC(=O)[O-])CCN(CC(=O)[O-])CC1.[Gd+3] [Molecule 14],0.35 fmol/cell and 0.26 fmol/cell and 0.21 fmol/cell,0.34 fmol/cell and 0.21 fmol/cell and 0.18 fmol/cell and 0.31 fmol/cell,0.22 fmol/cell and 0.31 fmol/cell and 0.20 fmol/cell,−3.62 ± 0.23,4.32 fmol/cell,,,
NCCCCCCN1CCN(CC(=O)[O-])CCN(CC(=O)[O-])CCN(CC(=O)[O-])CC1.[Gd+3] [Molecule 9],28.63 fmol/cell and 32.09 fmol/cell and 29.78 fmol/cell,11.67 fmol/cell and 20.36 fmol/cell and 14.83 fmol/cell,6.86 fmol/cell and 7.54 fmol/cell and 4.78 fmol/cell and 7.33 fmol/cell and 8.77 fmol/cell and 6.65 fmol/cell and 7.40 fmol/cell,−3.98 ± 0.07,,same result,13.02* fmol/cell and 14.46* fmol/cell and 18.05 fmol/cell and 24.04 fmol/cell,
C[N+](C)(C)CCCc1cn(CC(O)CN2CCN(CC(=O)[O-])CCN(CC(=O)[O-])CCN(CC(=O)[O-])CC2)nn1.[Gd+3] (stereo not drawn) [Molecule 5],0.37 fmol/cell and 0.29 fmol/cell and 0.42 fmol/cell and 0.43 fmol/cell,0.42 fmol/cell and 0.36 fmol/cell and 0.32 fmol/cell,0.52 fmol/cell and 0.29 fmol/cell and 0.25 fmol/cell and 0.35 fmol/cell and 0.37 fmol/cell,−4.33 ± 0.46,,,,2.73 fmol/cell
NCCCN1CCN(CC(=O)[O-])CCN(CC(=O)[O-])CCN(CC(=O)[O-])CC1.[Gd+3] [Molecule 8],13.40 fmol/cell and 20.22 fmol/cell and 14.84 fmol/cell,7.61 fmol/cell and 7.56 fmol/cell and 6.31 fmol/cell,0.68 fmol/cell and 1.78 fmol/cell and 1.87 fmol/cell and 1.16 fmol/cell and 0.94 fmol/cell and 1.30 fmol/cell and 1.48 fmol/cell,−3.86 ± 0.01,,,,
NCCCCCCCCCCCCN1CCN(CC(=O)[O-])CCN(CC(=O)[O-])CCN(CC(=O)[O-])CC1.[Gd+3] [Molecule 10],45.53 fmol/cell and 50.10 fmol/cell and 48.08 fmol/cell,14.47 fmol/cell and 26.93 fmol/cell and 18.26 fmol/cell,3.88 fmol/cell and 5.08 fmol/cell and 4.54 fmol/cell,−1.63 ± 0.04,,,,
O=C([O-])CN1CCN(CC(=O)[O-])CCN(CC(O)Cn2cc(CCCc3ccccc3)nn2)CCN(CC(=O)[O-])CC1.[Gd+3] (stereo not drawn) [Molecule 6],1.13 fmol/cell and 0.53 fmol/cell and 0.68 fmol/cell and 0.73 fmol/cell (2×) and 0.47 fmol/cell and 0.87 fmol/cell,1.29 fmol/cell and 1.24 fmol/cell and 0.67 fmol/cell and 0.64 fmol/cell,0.78 fmol/cell and 0.72 fmol/cell and 0.40 fmol/cell and 0.47 fmol/cell and 0.58 fmol/cell,−1.26 ± 0.08,4.12 fmol/cell,,,3.26 fmol/cell
O=C([O-])CN(CCN(CC(=O)[O-])CC(=O)[O-])CCN(CC(=O)[O-])CC(=O)[O-].[Gd+3] [Molecule 11],2.36 fmol/cell and 2.49 fmol/cell and 4.37 fmol/cell and 4.24 fmol/cell and 5.87 fmol/cell and 2.95 fmol/cell and 2.73 fmol/cell and 2.85 fmol/cell,5.16 fmol/cell and 5.75 fmol/cell and 4.01 fmol/cell and 3.75 fmol/cell and 3.78 fmol/cell and 3.36 fmol/cell,0.34 fmol/cell and 0.30 fmol/cell and 0.54 fmol/cell and 0.82 fmol/cell and 0.51 fmol/cell and 0.72 fmol/cell and 0.61 fmol/cell (2×),−3.80 ± 0.29,,,,
CC(O)CN1CCN(CC(=O)[O-])CCN(CC(=O)[O-])CCN(CC(=O)[O-])CC1.[Gd+3] (stereo not drawn) [Molecule 13],1.09 fmol/cell and 1.47 fmol/cell and 1.02 fmol/cell,1.36 fmol/cell and 1.84 fmol/cell and 0.82 fmol/cell and 1.59 fmol/cell and 1.47 fmol/cell,0.51 fmol/cell and 0.42 fmol/cell and 0.61 fmol/cell,−3.59 ± 0.16,0.53* fmol/cell and 0.55* fmol/cell,,,
O=C([O-])CN1CCN(CC(=O)[O-])CCN(CC(O)Cn2cc(CCCC(=O)O)nn2)CCN(CC(=O)[O-])CC1.[Gd+3] (stereo not drawn) [Molecule 4],0.31 fmol/cell and 0.23 fmol/cell (2×) and 0.33 fmol/cell and 0.25 fmol/cell and 0.13 fmol/cell and 0.16 fmol/cell and 0.17 fmol/cell and 0.20 fmol/cell and 0.29 fmol/cell and 0.22 fmol/cell,0.58 fmol/cell and 0.27 fmol/cell and 0.33 fmol/cell and 0.30 fmol/cell and 0.31 fmol/cell and 0.53 fmol/cell,0.51 fmol/cell and 0.26 fmol/cell and 0.25 fmol/cell and 0.23 fmol/cell and 0.34 fmol/cell and 0.36 fmol/cell,−3.44 ± 0.28,1.00 fmol/cell,,0.76 fmol/cell,0.66 fmol/cell and 0.76 fmol/cell and 0.62 fmol/cell
O=C([O-])CN1CCNCCN(CC(=O)[O-])CCN(CC(=O)[O-])CC1.[Gd+3] [Molecule 7],0.53 fmol/cell and 0.39 fmol/cell (2×) and 0.42 fmol/cell and 0.44 fmol/cell (2×) and 1.09 fmol/cell and 0.73 fmol/cell,0.63 fmol/cell and 0.55 fmol/cell and 0.68 fmol/cell and 0.50 fmol/cell and 1.05 fmol/cell and 1.36 fmol/cell,0.47 fmol/cell and 0.39 fmol/cell and 0.51 fmol/cell and 0.46 fmol/cell and 0.75 fmol/cell and 0.83 fmol/cell,−3.71 ± 0.02,6.54 fmol/cell and 4.00 fmol/cell,,4.93* fmol/cell and 4.31* fmol/cell,
O=C([O-])CN1CCN(CC(=O)[O-])CCN(CC(O)Cn2cc(CCCO)nn2)CCN(CC(=O)[O-])CC1.[Gd+3] (stereo not drawn) [Molecule 2],0.84 fmol/cell and 0.81 fmol/cell and 0.90 fmol/cell,0.59 fmol/cell and 0.88 fmol/cell and 0.70 fmol/cell,0.30 fmol/cell and 0.38 fmol/cell and 0.36 fmol/cell,−3.98 ± 0.06,,,,
